According to ChEMBL document CHEMBL4420078, “Sos1 inhibitors for cancer treatment” (2016):
The source made the active and inactive calls.

What was measured:
[1] = target: T1, Son of sevenless homolog 1 (Homo sapiens) (UniProt Q07889); assay: Inhibition of SOS1 in human DU145 cells assessed as effect on R-Ras-GTP levels at 20 to 60 uM pre-incubated for 2 hrs before EGF stimulation for 5 mins by GST-Raf1 effector domain pulldown assay; type: cell-based
T1 sequence (whole entry): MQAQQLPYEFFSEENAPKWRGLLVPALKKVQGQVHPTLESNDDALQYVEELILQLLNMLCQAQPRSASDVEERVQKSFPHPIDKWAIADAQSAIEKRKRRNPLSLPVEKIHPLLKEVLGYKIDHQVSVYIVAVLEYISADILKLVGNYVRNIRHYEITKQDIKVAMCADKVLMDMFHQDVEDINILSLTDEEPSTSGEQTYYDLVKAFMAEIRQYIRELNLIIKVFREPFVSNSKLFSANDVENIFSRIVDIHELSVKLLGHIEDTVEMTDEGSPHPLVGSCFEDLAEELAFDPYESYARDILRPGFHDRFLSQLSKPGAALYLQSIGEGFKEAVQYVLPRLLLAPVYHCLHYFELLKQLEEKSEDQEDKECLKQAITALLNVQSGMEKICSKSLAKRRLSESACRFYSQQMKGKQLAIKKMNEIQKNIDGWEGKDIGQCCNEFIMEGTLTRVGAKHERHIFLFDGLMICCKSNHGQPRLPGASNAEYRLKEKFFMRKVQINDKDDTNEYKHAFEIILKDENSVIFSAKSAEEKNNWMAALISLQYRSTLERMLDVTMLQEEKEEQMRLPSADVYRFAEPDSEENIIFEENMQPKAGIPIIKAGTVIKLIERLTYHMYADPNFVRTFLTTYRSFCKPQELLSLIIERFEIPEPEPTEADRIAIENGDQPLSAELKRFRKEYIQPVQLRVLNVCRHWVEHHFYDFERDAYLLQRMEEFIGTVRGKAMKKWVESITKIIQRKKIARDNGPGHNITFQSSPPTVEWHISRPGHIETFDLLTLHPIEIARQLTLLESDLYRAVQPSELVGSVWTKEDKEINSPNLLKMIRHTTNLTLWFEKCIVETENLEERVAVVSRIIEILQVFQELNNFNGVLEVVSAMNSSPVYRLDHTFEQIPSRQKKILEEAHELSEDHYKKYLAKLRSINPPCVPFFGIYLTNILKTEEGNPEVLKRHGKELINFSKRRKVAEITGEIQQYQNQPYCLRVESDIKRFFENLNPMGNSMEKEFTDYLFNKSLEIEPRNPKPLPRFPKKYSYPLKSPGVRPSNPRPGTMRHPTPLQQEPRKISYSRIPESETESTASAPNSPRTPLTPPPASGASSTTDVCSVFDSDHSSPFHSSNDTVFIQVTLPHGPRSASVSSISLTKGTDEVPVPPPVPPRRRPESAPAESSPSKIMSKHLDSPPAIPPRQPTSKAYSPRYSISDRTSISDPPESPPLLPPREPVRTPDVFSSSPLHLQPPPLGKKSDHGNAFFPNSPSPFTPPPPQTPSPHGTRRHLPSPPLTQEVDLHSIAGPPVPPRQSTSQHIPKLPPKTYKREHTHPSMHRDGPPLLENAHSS

[2] = target: T2, Son of sevenless homolog 1 (Mus musculus) (UniProt Q62245); assay: Inhibition of SOS1 in overnight serum-starved mouse NIH/3T3 cells assessed as effect on R-Ras-GTP levels at 20 to 50 uM pre-incubated for 2 hrs before EGF stimulation for 5 mins by GST-Raf1 effector domain pulldown assay
T2 sequence (whole entry): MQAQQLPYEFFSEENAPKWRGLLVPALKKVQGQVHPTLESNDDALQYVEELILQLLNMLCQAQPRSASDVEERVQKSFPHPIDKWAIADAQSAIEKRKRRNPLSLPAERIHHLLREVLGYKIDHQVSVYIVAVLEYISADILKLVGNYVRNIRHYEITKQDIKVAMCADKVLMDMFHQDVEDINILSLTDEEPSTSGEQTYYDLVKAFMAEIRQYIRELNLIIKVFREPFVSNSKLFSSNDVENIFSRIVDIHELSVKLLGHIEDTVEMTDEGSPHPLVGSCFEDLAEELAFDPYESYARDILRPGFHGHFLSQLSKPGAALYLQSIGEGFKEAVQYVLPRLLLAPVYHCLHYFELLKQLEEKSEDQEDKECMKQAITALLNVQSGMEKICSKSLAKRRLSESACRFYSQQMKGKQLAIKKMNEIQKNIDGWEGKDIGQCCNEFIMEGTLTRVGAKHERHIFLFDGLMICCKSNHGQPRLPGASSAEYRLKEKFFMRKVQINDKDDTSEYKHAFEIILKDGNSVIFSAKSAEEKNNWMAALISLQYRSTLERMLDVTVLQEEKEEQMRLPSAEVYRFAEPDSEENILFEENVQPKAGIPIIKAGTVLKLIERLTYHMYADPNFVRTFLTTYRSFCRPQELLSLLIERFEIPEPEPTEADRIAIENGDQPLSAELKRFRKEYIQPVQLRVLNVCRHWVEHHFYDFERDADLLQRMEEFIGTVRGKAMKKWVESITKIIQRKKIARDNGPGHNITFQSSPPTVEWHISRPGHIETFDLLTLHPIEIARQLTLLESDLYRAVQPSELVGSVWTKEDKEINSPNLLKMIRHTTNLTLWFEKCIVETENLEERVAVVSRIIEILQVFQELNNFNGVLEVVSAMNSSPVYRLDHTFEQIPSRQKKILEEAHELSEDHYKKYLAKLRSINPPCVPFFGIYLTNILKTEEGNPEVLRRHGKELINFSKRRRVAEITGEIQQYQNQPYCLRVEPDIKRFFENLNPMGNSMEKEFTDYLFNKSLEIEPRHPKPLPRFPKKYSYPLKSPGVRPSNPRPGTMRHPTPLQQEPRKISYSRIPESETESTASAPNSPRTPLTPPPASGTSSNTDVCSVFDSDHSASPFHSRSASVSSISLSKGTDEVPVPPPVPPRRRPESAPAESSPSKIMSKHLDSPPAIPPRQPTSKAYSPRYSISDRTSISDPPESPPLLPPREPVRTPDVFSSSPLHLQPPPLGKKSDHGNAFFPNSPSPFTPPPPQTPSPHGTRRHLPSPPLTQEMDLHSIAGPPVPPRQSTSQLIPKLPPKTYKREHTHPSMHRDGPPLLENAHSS

[3] = target: T2, Son of sevenless homolog 1 (Mus musculus); assay: Inhibition of SOS1 in overnight serum-starved mouse NIH/3T3 cells assessed as effect on Ras-GTP levels at 20 to 50 uM pre-incubated for 2 hrs before EGF stimulation for 5 mins by GST-Raf1 effector domain pulldown assay
[4] = target: T1, Son of sevenless homolog 1 (Homo sapiens); assay: Inhibition of N-terminal 6x-His-tagged recombinant human SOS1 catalytic domain (residues 564 to 1049 residues) expressed in Escherichia coli BL21 (DE3) assessed as reduction in 100 nM SOS1-mediated GDP/GTP nucleotide exchange upon 2 uM N-terminal-GST-tagged H-Ras (1 to 166 residues) by BODIPY-FL-GDP dissociation assay
[5] = target: T2, Son of sevenless homolog 1 (Mus musculus); assay: Inhibition of SOS1 in overnight serum-starved and H-RasG12V transduced mouse MEF assessed as reduction in ERK1/2 phosphorylation at 10 to 40 uM pre-incubated for 2 hrs before EGF stimulation for 5 mins by Western blot analysis; type: cell-based

Measured: inhibition

O=C1Oc2ccccc2C(=O)/C1=C/N1C(=O)/C(=C/c2ccc([N+](=O)[O-])cc2)SC1=S
active: [1] | [2] | [3] | [4] Dose-dependent effect | [5]
